Assay results reported in patent US9737532B2, “Method of treating ischemia/reperfusion injury” (TOKYO UNIVERSITY OF SCIENCE FOUNDATION, priority 2011, dated 2017).
Where two headings read alike, the source gives them in different places. Where a SMILES comes first, the peptide text is derived from it. The star is where a group is joined. Cbz = O=C(OCc1ccccc1)*

Assays:
Parp1 protein [1] = test: Parp1 protein levels by Western blotting in mouse cells; assay type: cell-based; settings: for Parp1 reduction, p53 dependency: MEFs from p53+/+ or −/− mice; for reduction in Parp1 protein: summary statement of the discussion; for basal Parp1 protein levels: MG132 alone, 5 μM
Excerpt: Mouse fibroblast cell line 3T3-L1, human lung cancer cell line A549, and human hepatoma cell line HepG2 were purchased from the RIKEN Bioresource Center (Japan). Mouse fibroblast cell line 3T3-F442A and human osteosarcoma cell line U2OS were purchased from the European Collection of Animal Cell Cultures (U.K.). p53 deficient mouse-derived fibroblast cell line HW (J. Med. Chem. (2010) 53, 4561-4584) was kindly provided by Dr. Masayuki Saito (Tenshi University, Japan). The cells were maintained in Dulbecco's modified Eagle's medium (low glucose) (WAKO, Japan) with 10% (3T3-L1, 3T3-F442A, HW, U2OS, and HepG2) or 5% (A549) fetal calf serum and 1% penicillin/streptomycin (SIGMA). Cpt and MG132 were purchased from WAKO (Japan).
We designed a mouse p53 shRNA expression vector based on target sequences for effective p53 knockdown, as previously reported (J. Biol. Chem. (2003) 278, 11731-11734). Two oligonucleotides, 5′-gatcccc[…]ttcaagaga[…]ttttt ggaaa-3′ (SEQ ID NO:1) and 5′-agcttttccaaaaa[…]tctcttgaa[…] ACggg-3′ (SEQ ID NO:2) (upper case letters, target sequences against p53; lower case letters, BgIII, HindIII or loop structure sequences) were chemically synthesized (Operon Biotechnology, USA). The annealed oligos were directly ligated into a BgIII and HindIII-digested pSUPER-puro shRNA expression vector gifted from Dr. Shigeo Ohno (Yokohama City University, Japan) (Cell Sci. (2006) 119, 2107-2118). The produced vector, termed pSUPER-puro-shmp53, was transfected with Lipofectamine LTX (Invitrogen, USA) into 3T3-L1 cells, according to the manufacturer's protocol. For stable p53 knockdown cell lines, the transfected cells were selected with puromycin and resistant clones were isolated by trypsinization using cloning cylinders.
p53 heterozygous mice (Accession Number, CDB 0001K) (Oncogene (1993) 8, 3313-3322) were purchased from RIKEN BRC (Saitama, Japan). p53 heterozygous males and females were crossed, and MEFs were prepared from the pregnant females. Each 13- to 15-day-old embryo was dissected from the uterus and washed with PBS. After removal of the head, tail, limbs, and blood-enriched organs, the trimmed embryo was washed with PBS and minced. After trypsinization at 37° C. for 10 min followed by inactivation of trypsin by addition of FCS, MEFs were separated by filtration through a cell-strainer. p53 status was confirmed by PCR using previously described primers (forward primer for p53 genomic sequence, 5′-[…]-3′ (SEQ ID NO:3); reverse primer for p53 genomic sequence, 5′-[…]-3′ (SEQ ID NO:4), forward primer for neo sequence, 5′-[…]-3′ (SEQ ID NO:5)) (Oncogene (1993) 8, 3313-3322), and the established MEFs were maintained in DMEM high glucose with 10% FCS, 2-mercaptoethanol (2-ME), and antibiotics.
Cells were lyzed by the addition of lysis buffer (50 mM Tris-HCl pH6.8, 2% SDS, 5% glycerol), boiled for 5 min, and sonicated. Protein concentrations of the soluble fraction were determined by BCA protein assay (PIERCE, USA) according to the manufacturer's protocol, and standardized by the addition of lysis buffer. Following this, the proteins were added to 2-ME and bromophenol blue so as to obtain final concentrations of 5% and 0.025%, respectively, and boiled for 5 min. Equal amounts of proteins (5 to 20 μg) were subjected to SDS-PAGE and transferred to nitrocellulose membranes. The membranes were blocked with 2.5% skim milk and 0.25% BSA in TBS (50 mM Tris, pH 7.4, 150 mM NaCl) containing 0.1% Tween 20 (TTBS) for 1 h at room temperature, and then probed with appropriate primary antibodies overnight at 4° C. or for 2 h at room temperature. As primary antibodies, anti-Parp1 (clone C-2-10, WAKO, Japan), anti-p53 (clone Ab-1, Calbiochem, USA), anti-βactin (clone AC-15, SIGMA, USA), or anti-caspase-3 (clone 1F3, MBL, Japan) antibodies were used. […]

Parp1 protein [2] = test: Parp1 protein levels by Western blotting in human cell lines; assay type: cell-based
caspase-3 = caspase-3 activation by Western blotting in mouse fibroblast cells; assay type: cell-based; settings: 24 hours
Parp1 mRNA = Parp1 mRNA by RT-PCR; assay type: cell-based, mouse; settings: 24 hours, FIG. 3A
Description: Cells were lyzed by RNAiso PLUS (TaKaRa, Japan), and then total RNA was purified using a FastPure RNA kit (TaKaRa, Japan) according to manufacturer's protocol. […] RNA was subjected to reverse transcription with PrimeScript Reverse Transcriptase (TaKaRa, Japan) and random hexamer (TaKaRa, Japan). The PCR reaction was performed using Platinum Taq DNA Polymerase High Fidelity (Invitrogen, USA) and Parp1 (forward, 5′-[…]-3′ (SEQ ID NO:6); reverse, 5′-[…]-3′ (SEQ ID NO:7)) or β-actin primers (forward, 5′-[…]-3′ (SEQ ID NO:8); reverse, 5′-[…]-3′ (SEQ ID NO:9)) as follows: initiation step, at 94° C. for 1 min; amplification step, 30 (Parp1) or 25 (β-actin) cycles of at 94° C. for 1 min, at 52° C. (Parp1) or 61° C. (β-actin) for 15 sec, at 68° C. for 15 sec; termination step, 68° C. 15 sec. PCR products were subjected to 1.8% agarose gel electrophoresis, stained with ethidium bromide, and visualized with LAS3000. The data was analyzed using MultiGauge software (FUJI FILM, Japan).

Parp1 = settings: cited from earlier work
p53 = p53 protein stabilization by Western blotting in mouse fibroblast cells; assay type: cell-based; settings: for p53 stabilization: 24 hours, FIG. 1A; for p53 accumulation: summary statement of the discussion; for p53 protein stabilization: 8 hours, FIG. 4A
[3] = 3T3-F442A cells, 8 hours, FIGS. 4A and 4B
[4] = 3T3-F442A cells, 24 hours, FIGS. 1A and 1B
[5] = 3T3-L1 cells, 8 hours, FIGS. 4A and 4B
[6] = 3T3-L1 cells, 24 hours, FIGS. 1A and 1B

In the case of `COc1ccc(C2=N[C@@H](c3ccc(Cl)cc3)[C@@H](c3ccc(Cl)cc3)N2C(=O)N2CCNC(=O)C2)c(OC(C)C)c1` [Nutlin3a], the Parp1 protein levels (Parp1 protein [1]; [3]) is reported as “markedly decreased the Parp1 protein levels”, the Parp1 protein levels (Parp1 protein [1]; [4]) is reported as “markedly decreased it” and the “decrease in Parp1” value (Parp1 protein [1]; 3T3-L1/shp53 cells (p53 stable knockdown), FIG. 2B) is reported as “diminished significantly”. For the same molecule, the “decrease in Parp1” value (Parp1 protein [1]; 3T3-L1 cells with shRNA-mediated transient knockdown of p53, FIG. 2A) was “attenuated the decrease in Parp1”, the Parp1 protein levels (Parp1 protein [1]; [5]) was “markedly decreased the Parp1 protein levels” and the Parp1 protein levels (Parp1 protein [1]; [6]) was “markedly decreased it”. For the same molecule, the “Parp1 protein, time course” value (Parp1 protein [1]; 3T3-L1 or 3T3-F442A cells, 25 μM for 8 h, FIG. 1C) was “Parp1 protein diminished”, the “decrease in Parp1” value (Parp1 protein [1]; HW cells (p53 deficient), FIG. 2B) was “diminished significantly” and the “Parp1 reduction, p53 dependency” value (Parp1 protein [1]; 24 hours, FIG. 2C) was “reduces the Parp1 protein levels in a p53-dependent manner”. The “levels of full length of Parp1 protein” value (Parp1 protein [1]; Nutlin3a-treated 3T3-L1, first observation) was “significant reduction in the levels of full length of Parp1 protein without cleavage into p85 and p25 apoptotic fragments”, the “Nutlin3a-induced Parp1 decrease” value (Parp1 protein [2]; A549 cells, 24 h, FIG. 1D) was “detected the Nutlin3a-induced Parp1 decrease in only A549 cells” and the “reduction in Parp1 protein” value (Parp1 protein [2]; HCT116 cells, various doses of Nutlin3a, data not shown) was “no significant reduction in Parp1 protein other than apoptotic cleavage”. For the same molecule, the caspase-3 activation (caspase-3; 3T3-F442A cells) was “no caspase-3 activation”, the caspase-3 activation (caspase-3; 3T3-L1 cells) was “no caspase-3 activation” and the “Parp1 mRNA” value (Parp1 mRNA; p53 deficient cell lines (3T3-L1/shp53 and HW)) was “did not change”. For the same molecule, the “Parp1 mRNA” value (Parp1 mRNA; p53 proficient cell lines (3T3-L1 and 3T3-F442A)) was “did not change”, the “cell viability (trypan blue exclusion)” value (3T3-L1 cells) was “the cells were viable” and the “cleavage of Parp1” value (Parp1; human colon cancer cell line HCT116) was “induces cleavage of Parp1 into two apoptotic fragments”. For the same molecule, the “cleavage of Parp1” value (Parp1; human myeloid leukemia cell line ML-1) was “induces cleavage of Parp1 into two apoptotic fragments”.

With `CC[C@@]1(O)C(=O)OCc2c1cc1n(c2=O)Cc2cc3ccccc3nc2-1` [Cpt, camptothecin] the Parp1 protein levels (Parp1 protein [1]; [4]) was “did not alter the Parp1 protein levels”, the Parp1 protein levels (Parp1 protein [1]; [6]) was “did not alter the Parp1 protein levels” and the “reduction in Parp1 protein” value (Parp1 protein [1]) was “did not evoke a significant reduction in Parp1 protein”. The p53 stabilization (p53; 3T3-F442A cells) was “induced p53 stabilization”, the p53 stabilization (p53; 3T3-L1 cells) was “induced p53 stabilization” and the p53 accumulation (p53) was “induced p53 accumulation”. The caspase-3 activation (caspase-3; 3T3-F442A cells) was “no caspase-3 activation” and the caspase-3 activation (caspase-3; 3T3-L1 cells) was “no caspase-3 activation”.

For `COc1ccc(C2=N[C@H](c3ccc(C(F)(F)F)cc3)[C@H](c3ccc(C(F)(F)F)cc3)N2C(=O)N2CCNC(=O)C2)c(OC(C)C)c1` [Caylin2], the “Parp1 cleavage / Parp1 protein” value (Parp1 protein [1]; 20 μM Caylin2, 8 hours) was “induced Parp1 protein decrease without any trace of its apoptotic cleavage”, the “Parp1 cleavage / Parp1 protein” value (Parp1 protein [1]; 100 μM Caylin2, 8 hours) was “induced Parp1 cleavage” and the Parp1 protein levels (Parp1 protein [1]; [3]) was “markedly decreased the Parp1 protein levels”. For the same molecule, the Parp1 protein levels (Parp1 protein [1]; [5]) was “markedly decreased the Parp1 protein levels”, the “Parp1 reduction, p53 dependency” value (Parp1 protein [1]; 8 hours, FIGS. 5A and 5B) was “reduces the Parp1 protein levels in a p53-dependent manner” and the p53 protein stabilization (p53; 3T3-F442A cells) was “induced p53 protein stabilization”. For the same molecule, the p53 protein stabilization (p53; 3T3-L1 cells) was “induced p53 protein stabilization”.

With `N.N.[Cl][Pt][Cl]` [cisplatin] the Parp1 protein levels (Parp1 protein [1]; cisplatin treatment, data not shown) was “did not affect Parp1 protein levels”, the “reduction in Parp1 protein” value (Parp1 protein [1]) was “did not evoke a significant reduction in Parp1 protein” and the p53 accumulation (p53) was “induced p53 accumulation”.

In the case of `CC(C)C[C@@H](C=O)NC(=O)[C@H](CC(C)C)NC(=O)[C@H](CC(C)C)NC(=O)OCc1ccccc1` [MG132] (Cbz-Leu-Leu-Leu-aldehyde), the “effect on Caylin2-induced reduction in Parp1” value (Parp1 protein [1]; 5 μM MG132 with 20 μM Caylin2, 8 hours, 3T3-L1 cells, FIG. 6B) is reported as “clearly inhibited the Caylin2-induced reduction in Parp1”, the “effect on Nutlin3a-induced reduction in Parp1” value (Parp1 protein [1]; 5 μM MG132 with 25 μM Nutlin3a, 8 hours, 3T3-L1 and 3T3-F442A cells, FIG. 3B) is reported as “clearly inhibited the Nutlin3a-induced reduction in Parp1” and the “basal Parp1 protein levels” value (Parp1 protein [1]; 8 hours, 3T3-L1 and 3T3-F442A cells, FIG. 3B) is reported as “did not affect basal Parp1 protein levels”. For the same molecule, the “basal Parp1 protein levels” value (Parp1 protein [1]; 8 hours, 3T3-L1 cells, FIG. 6B) was “did not affect basal Parp1 protein levels”, the “reduction in Parp1 protein” value (Parp1 protein [1]) was “did not evoke a significant reduction in Parp1 protein” and the p53 accumulation (p53) was “induced p53 accumulation”.
